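Compound exposure: 48 hours, 5 concentrations, 96-well plates. GI50 marks 50% less growth. TGI is the concentration that stops growth completely.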
Tests used:
Experiment in all cases: growth of human tumour cells (NCI), 48 h
[1] = tested on: 786-0 renal
[2] = tested on: A498 renal
[3] = tested on: A549 NSCLC
[4] = tested on: ACHN renal
[5] = tested on: BT-549 breast
[6] = tested on: CCRF-CEM leukemia
[7] = tested on: COLO 205 colon
[8] = tested on: DU-145 prostate
[9] = tested on: EKVX NSCLC
[10] = tested on: HCC-2998 colon
[11] = tested on: HCT-116 colon
[12] = tested on: HCT-15 colon
[13] = tested on: HL-60(TB) leukemia
[14] = tested on: HOP-62 NSCLC
[15] = tested on: HOP-92 NSCLC
[16] = tested on: HS 578T breast
[17] = tested on: HT29 colon
[18] = tested on: IGROV1 ovarian
[19] = tested on: K-562 leukemia
[20] = tested on: KM12 colon
[21] = tested on: LOX IMVI melanoma
[22] = tested on: M14 melanoma
[23] = tested on: MALME-3M melanoma
[24] = tested on: MCF7 breast
[25] = tested on: MDA-MB-231 breast
[26] = tested on: MDA-MB-435
[27] = tested on: MOLT-4 leukemia
[28] = tested on: NCI-H226 lung
[29] = tested on: NCI-H23 lung
[30] = tested on: NCI-H460 lung
[31] = tested on: NCI-H522 lung
[32] = tested on: NCI/ADR-RES ovarian
[33] = tested on: OVCAR-3 ovarian
[34] = tested on: OVCAR-4 ovarian
[35] = tested on: OVCAR-5 ovarian
[36] = tested on: OVCAR-8 ovarian
[37] = tested on: PC-3 prostate
[38] = tested on: RPMI-8226 leukemia
[39] = tested on: RXF 393 renal
[40] = tested on: SF-268 CNS
[41] = tested on: SF-295 CNS
[42] = tested on: SF-539 CNS
[43] = tested on: SK-MEL-2 melanoma
[44] = tested on: SK-MEL-28 melanoma
[45] = tested on: SK-MEL-5 melanoma
[46] = tested on: SK-OV-3 ovarian
[47] = tested on: SN12C renal
[48] = tested on: SNB-19 CNS
[49] = tested on: SNB-75 CNS
[50] = tested on: SR leukemia
[51] = tested on: SW-620 colon
[52] = tested on: T-47D breast
[53] = tested on: TK-10 renal
[54] = tested on: U251 CNS
[55] = tested on: UACC-257 melanoma
[56] = tested on: UACC-62 melanoma
[57] = tested on: UO-31 renal

In the case of `CSc1nnc(-c2cc3c([nH]c4ccccc43)c(-c3cccc(O)c3)n2)n1-c1ccc(C)cc1`, the GI50 [1] was 4.61 µM, the TGI [1] was 32.2 µM and the GI50 [2] was 1.73 µM. It also gave a TGI [2] of 7.14 µM, a GI50 [3] of 3.79 µM and a TGI [3] of 24.6 µM. For the same molecule, the GI50 [4] was 2.11 µM, the TGI [4] was 6.06 µM and the GI50 [5] was 2.37 µM. For the same molecule, the TGI [5] was 9.27 µM, the GI50 [6] was 9.4 µM and the TGI [6] was over 100 µM. It also gave a GI50 [7] of 4.49 µM, a TGI [7] of 43.6 µM and a GI50 [8] of 4.57 µM. The TGI [8] was 77.6 µM, the GI50 [9] was 4.51 µM and the TGI [9] was over 100 µM. For the same molecule, the GI50 [10] was 12.3 µM, the TGI [10] was over 100 µM and the GI50 [11] was 4.35 µM. It also gave a TGI [11] of over 100 µM, a GI50 [12] of 3.55 µM and a TGI [12] of over 100 µM. It also gave a GI50 [13] of 3.02 µM, a TGI [13] of over 100 µM and a GI50 [14] of 2.47 µM. It also gave a TGI [14] of 7.45 µM, a GI50 [15] of 1.75 µM and a TGI [15] of 7.59 µM. The GI50 [16] was 3.86 µM, the TGI [16] was 72.1 µM and the GI50 [17] was 3.39 µM. It also gave a TGI [17] of over 100 µM, a GI50 [18] of 3.62 µM and a TGI [18] of 24.6 µM. It also gave a GI50 [19] of 5.08 µM, a TGI [19] of over 100 µM and a GI50 [20] of 3.86 µM. It also gave a TGI [20] of over 100 µM, a GI50 [21] of 5.05 µM and a TGI [21] of over 100 µM. The GI50 [22] was 3.83 µM, the TGI [22] was over 100 µM and the GI50 [23] was 1.88 µM. For the same molecule, the TGI [23] was 5.4 µM, the GI50 [24] was 2.5 µM and the TGI [24] was over 100 µM. For the same molecule, the GI50 [25] was 3.31 µM, the TGI [25] was 15.8 µM and the GI50 [26] was 1.32 µM. It also gave a TGI [26] of 11.2 µM, a GI50 [27] of 3.65 µM and a TGI [27] of over 100 µM. The GI50 [28] was 3.32 µM, the TGI [28] was 18 µM and the GI50 [29] was 5.76 µM. For the same molecule, the TGI [29] was over 100 µM, the GI50 [30] was 3.31 µM and the TGI [30] was 14.6 µM. For the same molecule, the GI50 [31] was 2.26 µM, the TGI [31] was 11.1 µM and the GI50 [32] was 5.64 µM. The TGI [32] was over 100 µM, the GI50 [33] was 2.64 µM and the TGI [33] was 9.24 µM. The GI50 [34] was 2.73 µM, the TGI [34] was 8.61 µM and the GI50 [35] was 17.2 µM. It also gave a TGI [35] of 70.1 µM, a GI50 [36] of 4.25 µM and a TGI [36] of 45.2 µM. The GI50 [37] was 3.58 µM, the TGI [37] was 23 µM and the GI50 [38] was 5.31 µM. The TGI [38] was over 100 µM, the GI50 [39] was 2.11 µM and the TGI [39] was 6.51 µM. For the same molecule, the GI50 [40] was 3.83 µM, the TGI [40] was 48.1 µM and the GI50 [41] was 2.59 µM. For the same molecule, the TGI [41] was 9.62 µM, the GI50 [42] was 2.81 µM and the TGI [42] was 14.1 µM. It also gave a GI50 [43] of 2.11 µM, a TGI [43] of 6.61 µM and a GI50 [44] of 2.23 µM. For the same molecule, the TGI [44] was 7.74 µM, the GI50 [45] was 2.38 µM and the TGI [45] was 11.5 µM. The GI50 [46] was 3.19 µM, the TGI [46] was 14 µM and the GI50 [47] was 5.83 µM. It also gave a TGI [47] of 81.6 µM, a GI50 [48] of 3.71 µM and a TGI [48] of 28.6 µM. It also gave a GI50 [49] of 1.66 µM, a TGI [49] of 5.33 µM and a GI50 [50] of 2.09 µM. It also gave a TGI [50] of over 100 µM, a GI50 [51] of 5.8 µM and a TGI [51] of over 100 µM. For the same molecule, the GI50 [52] was 1.95 µM, the TGI [52] was 8.16 µM and the GI50 [53] was 3.01 µM. For the same molecule, the TGI [53] was 9.64 µM, the GI50 [54] was 4.84 µM and the TGI [54] was 28.7 µM. For the same molecule, the GI50 [55] was 5 µM, the TGI [55] was 44.7 µM and the GI50 [56] was 3.28 µM. The TGI [56] was 21.5 µM, the GI50 [57] was 1.93 µM and the TGI [57] was 29.1 µM.
